The target in test [1] is T1, Retinoic acid receptor beta (Homo sapiens) (UniProt P10826).
T1 sequence (whole entry): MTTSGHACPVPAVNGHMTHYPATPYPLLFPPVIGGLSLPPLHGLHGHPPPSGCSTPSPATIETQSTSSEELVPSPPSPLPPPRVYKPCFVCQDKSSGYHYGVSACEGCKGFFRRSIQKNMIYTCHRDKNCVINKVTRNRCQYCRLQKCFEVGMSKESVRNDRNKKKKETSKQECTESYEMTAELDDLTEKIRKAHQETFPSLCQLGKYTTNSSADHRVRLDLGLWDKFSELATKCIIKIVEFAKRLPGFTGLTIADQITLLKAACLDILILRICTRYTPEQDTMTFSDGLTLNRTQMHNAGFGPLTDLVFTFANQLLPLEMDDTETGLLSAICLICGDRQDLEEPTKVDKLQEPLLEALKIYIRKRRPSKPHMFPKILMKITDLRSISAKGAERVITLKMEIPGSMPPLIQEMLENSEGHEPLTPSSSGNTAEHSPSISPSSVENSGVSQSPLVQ
As to the kind of experiment: Agonist activity at human RARbeta expressed in human MG63 cells co-transfected with RARE3-SV40-Luc assessed as transcriptional efficacy at 10^-6 M after 2 days by luciferase reporter gene assay realtive to 9-cis-retinoic acid. It counts as functional, cell-based. To be noted: MG-63. A general note: In a reporter assay the amount or activity of a reporter protein is the signal.

Test [2] addresses T2, Cellular retinoic acid-binding protein 2 (Rattus norvegicus) (UniProt P51673).
T2 sequence (whole entry): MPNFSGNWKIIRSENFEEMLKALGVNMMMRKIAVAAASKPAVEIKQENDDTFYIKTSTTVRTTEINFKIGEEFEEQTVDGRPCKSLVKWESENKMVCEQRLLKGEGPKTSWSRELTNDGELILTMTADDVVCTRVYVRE
As to the kind of experiment: Agonist activity at rat CRABP2 expressed in human MG63 cells co-transfected with RXRE-SV40-Luc assessed as transcriptional efficacy at 10^-6 M after 2 days by luciferase reporter gene assay realtive to 9-cis-retinoic acid. The class given is functional, cell-based. To be noted: MG-63.

This note sets out measurements from ChEMBL document CHEMBL1772949, “Replacement of the hydrophobic part of 9-cis-retinoic acid with cyclic terpenoid moiety results in RXR-selective agonistic activity” (Bioorg Med Chem, 2011).

On to `CC(=C/C=C/C(C)=C/C(=O)O)/C=C/C1=C[C@@H]2CC[C@@]1(C)C2(C)C`, for which the Ratio was determined as 1.36 in test [1] and 2.34 in test [2].

For `CC(=C/C=C/C(C)=C/C(=O)O)/C=C/C1=CC2CC[C@]1(C)C2(C)C` (single isomer, unassigned), the results for the Ratio in test [1] and in test [2] were 1.99 and 0.66, respectively.

As for `CC(=C/C=C/C(C)=C/C(=O)O)/C=C/C1=C[C@@H]2C[C@H]([C@H]1C)C2(C)C`, the values for the Ratio in test [1] and in test [2] were 0.89 and 1.3, respectively.

Regarding `CC(=C/C=C/C(C)=C/C(=O)O)/C=C/C1=C[C@H](C)CC[C@H]1C(C)C`, the Ratio in test [1] was determined as 0.25; in test [2], 1.12.

In the case of `CC(=C/C=C/C(C)=C/C(=O)O)/C=C/C1=C[C@]2(C(C)C)C[C@@H]2[C@H]1C`, the Ratio came to 1.03 in test [1] and 2.52 in test [2].

For the molecule `CC(=C/C=C/C(C)=C/C(=O)O)/C=C/C1=C[C@@H](C)CC[C@@H]1C(C)C`, the figures for the Ratio in test [1] and in test [2] were 0.38 and 1.37, respectively.

In the case of `C=C(C)[C@@H]1CCC2=CC(\C(C)=C/C=C/C(C)=C/C(=O)O)=CC[C@]2(C)[C@H]1C`, the Ratio in test [1] came out at 0.1; in test [2], 0.23.

`CC(=C/C=C/C(C)=C/C(=O)O)/C=C/C1=C[C@H]2C[C@@H]([C@@H]1C)C2(C)C`: the results for the Ratio in test [1] and in test [2] were 1.48 and 0.52, respectively.

In the case of `CC(=C/C=C/C(C)=C/C(=O)O)/C=C/C1=CC[C@H]2C[C@@H]1C2(C)C`, the Ratio in test [1] turned out to be 1.92; in test [2], 2.42.

Consider `C=C(C)[C@@H]1CC[C@@H](C)C=C1/C=C/C(C)=C\C=C\C(C)=C\C(=O)O`, for which the Ratio in test [1] was 0.35; in test [2], 1.07.

`CC(C)=C1CC[C@H](C)C=C1/C=C/C(C)=C\C=C\C(C)=C\C(=O)O`: the Ratio stood at 0.32 in test [1] and 2.06 in test [2].

`C/C(=C/C=C/C(C)=C/C(=O)O)C1=CC(C)(C)[C@@]23CC[C@@H](C2)C(C)(C)C3=C1`: the Ratio in test [1] was 0.98; in test [2] it was 0.71.

Take `CC(C)=C1CC[C@@H](C)C=C1/C=C/C(C)=C\C=C\C(C)=C\C(=O)O`: the Ratio in test [1] was found to be 0.5; in test [2] it was 1.5.

As to `C=C(C)[C@H]1CC[C@H](C)C=C1/C=C/C(C)=C\C=C\C(C)=C\C(=O)O`, the results for the Ratio in test [1] and in test [2] were 1.33 and 1.76, respectively.

In the case of `C/C(=C/C=C/C(C)=C/C(=O)O)C1=C[C@H]2CC[C@]1(C)C2(C)C`, the values for the Ratio in test [1] and in test [2] were 0.04 and 0.18, respectively.

Turning to `C/C(=C/C=C/C(C)=C/C(=O)O)C1=C[C@H](C)CC[C@H]1C(C)C`, the Ratio in test [1] is 0.14; in test [2] it was 0.37.
